#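 Five compound concentrations were applied to cells in 96-well plates for 48 hours; endpoints were derived by simple linear interpolation of the resulting dose-response curve. Here, GI50 denotes the concentration required for 50% inhibition of growth. Definition used: TGI = concentration required for complete inhibition of growth.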
# Assays:
# Test in all cases: inhibition of tumour cell growth, NCI panel, 48 h
# 786-0 renal = system: 786-0 renal
# A498 renal = system: A498 renal
# A549 NSCLC = system: A549 NSCLC
# ACHN renal = system: ACHN renal
# BT-549 breast = system: BT-549 breast
# CAKI-1 renal = system: CAKI-1 renal
# CCRF-CEM leukemia = system: CCRF-CEM leukemia
# COLO 205 colon = system: COLO 205 colon
# DU-145 prostate = system: DU-145 prostate
# HCC-2998 colon = system: HCC-2998 colon
# HCT-116 colon = system: HCT-116 colon
# HCT-15 colon = system: HCT-15 colon
# HL-60(TB) leukemia = system: HL-60(TB) leukemia
# HOP-62 NSCLC = system: HOP-62 NSCLC
# HOP-92 NSCLC = system: HOP-92 NSCLC
# HS 578T breast = system: HS 578T breast
# HT29 colon = system: HT29 colon
# IGROV1 ovarian = system: IGROV1 ovarian
# K-562 leukemia = system: K-562 leukemia
# KM12 colon = system: KM12 colon
# LOX IMVI melanoma = system: LOX IMVI melanoma
# M14 melanoma = system: M14 melanoma
# MALME-3M melanoma = system: MALME-3M melanoma
# MCF7 breast = system: MCF7 breast
# MDA-MB-231 breast = system: MDA-MB-231 breast
# MDA-MB-435 = system: MDA-MB-435
# MOLT-4 leukemia = system: MOLT-4 leukemia
# NCI-H226 lung = system: NCI-H226 lung
# NCI-H23 lung = system: NCI-H23 lung
# NCI-H460 lung = system: NCI-H460 lung
# NCI-H522 lung = system: NCI-H522 lung
# NCI/ADR-RES ovarian = system: NCI/ADR-RES ovarian
# OVCAR-3 ovarian = system: OVCAR-3 ovarian
# OVCAR-4 ovarian = system: OVCAR-4 ovarian
# OVCAR-5 ovarian = system: OVCAR-5 ovarian
# OVCAR-8 ovarian = system: OVCAR-8 ovarian
# PC-3 prostate = system: PC-3 prostate
# RPMI-8226 leukemia = system: RPMI-8226 leukemia
# RXF 393 renal = system: RXF 393 renal
# SF-268 CNS = system: SF-268 CNS
# SF-295 CNS = system: SF-295 CNS
# SF-539 CNS = system: SF-539 CNS
# SK-MEL-2 melanoma = system: SK-MEL-2 melanoma
# SK-MEL-28 melanoma = system: SK-MEL-28 melanoma
# SK-MEL-5 melanoma = system: SK-MEL-5 melanoma
# SK-OV-3 ovarian = system: SK-OV-3 ovarian
# SN12C renal = system: SN12C renal
# SNB-19 CNS = system: SNB-19 CNS
# SNB-75 CNS = system: SNB-75 CNS
# SR leukemia = system: SR leukemia
# SW-620 colon = system: SW-620 colon
# T-47D breast = system: T-47D breast
# TK-10 renal = system: TK-10 renal
# U251 CNS = system: U251 CNS
# UACC-257 melanoma = system: UACC-257 melanoma
# UACC-62 melanoma = system: UACC-62 melanoma
# UO-31 renal = system: UO-31 renal
smiles,measurement,setting,value
COc1cc(-c2nn(-c3cccc(NC(=O)c4ccc(N5CCOCC5)c(C(F)(F)F)c4)c3)cc2-c2ccncc2)ccc1Cl,GI50,786-0 renal,0.561 µM
same,TGI,786-0 renal,2.81 µM
same,GI50,A498 renal,0.103 µM
same,TGI,A498 renal,0.765 µM
same,GI50,A549 NSCLC,0.287 µM
same,TGI,A549 NSCLC,> 36.9 µM
same,GI50,ACHN renal,0.585 µM
same,TGI,ACHN renal,> 100 µM
same,GI50,BT-549 breast,0.932 µM
same,TGI,BT-549 breast,> 42 µM
same,GI50,CAKI-1 renal,0.293 µM
same,TGI,CAKI-1 renal,3.19 µM
same,GI50,CCRF-CEM leukemia,0.236 µM
same,TGI,CCRF-CEM leukemia,> 100 µM
same,GI50,COLO 205 colon,0.446 µM
same,TGI,COLO 205 colon,1.69 µM
same,GI50,DU-145 prostate,0.379 µM
same,TGI,DU-145 prostate,> 39.3 µM
same,GI50,HCC-2998 colon,1.5 µM
same,TGI,HCC-2998 colon,7 µM
same,GI50,HCT-116 colon,0.299 µM
same,TGI,HCT-116 colon,> 32.9 µM
same,GI50,HCT-15 colon,0.226 µM
same,TGI,HCT-15 colon,> 100 µM
same,GI50,HL-60(TB) leukemia,0.233 µM
same,GI50,HOP-62 NSCLC,0.524 µM
same,TGI,HOP-62 NSCLC,> 58.6 µM
same,GI50,HOP-92 NSCLC,0.128 µM
same,TGI,HOP-92 NSCLC,0.952 µM
same,GI50,HS 578T breast,0.257 µM
same,GI50,HT29 colon,0.466 µM
same,TGI,HT29 colon,2.19 µM
same,GI50,IGROV1 ovarian,0.405 µM
same,TGI,IGROV1 ovarian,9.81 µM
same,GI50,K-562 leukemia,0.0555 µM
same,TGI,K-562 leukemia,> 100 µM
same,GI50,KM12 colon,0.213 µM
same,TGI,KM12 colon,8.78 µM
same,GI50,LOX IMVI melanoma,0.371 µM
same,TGI,LOX IMVI melanoma,6.2 µM
same,GI50,M14 melanoma,0.346 µM
same,TGI,M14 melanoma,13.8 µM
same,GI50,MALME-3M melanoma,0.0769 µM
same,TGI,MALME-3M melanoma,1.54 µM
same,GI50,MCF7 breast,0.263 µM
same,TGI,MCF7 breast,> 100 µM
same,GI50,MDA-MB-231 breast,0.384 µM
same,TGI,MDA-MB-231 breast,3.54 µM
same,GI50,MDA-MB-435,0.0252 µM
same,TGI,MDA-MB-435,0.0827 µM
same,GI50,MOLT-4 leukemia,0.669 µM
same,TGI,MOLT-4 leukemia,> 100 µM
same,GI50,NCI-H226 lung,1.07 µM
same,TGI,NCI-H226 lung,99.2 µM
same,GI50,NCI-H23 lung,0.826 µM
same,TGI,NCI-H23 lung,34.2 µM
same,GI50,NCI-H460 lung,0.299 µM
same,TGI,NCI-H460 lung,> 20.4 µM
same,GI50,NCI-H522 lung,0.0606 µM
same,TGI,NCI-H522 lung,0.915 µM
same,GI50,NCI/ADR-RES ovarian,0.203 µM
same,TGI,NCI/ADR-RES ovarian,> 100 µM
same,GI50,OVCAR-3 ovarian,0.147 µM
same,TGI,OVCAR-3 ovarian,1.19 µM
same,GI50,OVCAR-4 ovarian,1.51 µM
same,TGI,OVCAR-4 ovarian,> 100 µM
same,GI50,OVCAR-5 ovarian,1.2 µM
same,TGI,OVCAR-5 ovarian,> 86.4 µM
same,GI50,OVCAR-8 ovarian,0.468 µM
same,TGI,OVCAR-8 ovarian,> 100 µM
same,GI50,PC-3 prostate,0.166 µM
same,TGI,PC-3 prostate,5.22 µM
same,GI50,RPMI-8226 leukemia,0.269 µM
same,TGI,RPMI-8226 leukemia,> 100 µM
same,GI50,RXF 393 renal,0.207 µM
same,TGI,RXF 393 renal,0.809 µM
same,GI50,SF-268 CNS,0.559 µM
same,TGI,SF-268 CNS,> 48.1 µM
same,GI50,SF-295 CNS,0.15 µM
same,TGI,SF-295 CNS,1.15 µM
same,GI50,SF-539 CNS,0.181 µM
same,TGI,SF-539 CNS,0.552 µM
same,GI50,SK-MEL-2 melanoma,0.21 µM
same,TGI,SK-MEL-2 melanoma,2.46 µM
same,GI50,SK-MEL-28 melanoma,0.936 µM
same,TGI,SK-MEL-28 melanoma,> 84.8 µM
same,GI50,SK-MEL-5 melanoma,0.126 µM
same,TGI,SK-MEL-5 melanoma,0.966 µM
same,GI50,SK-OV-3 ovarian,0.345 µM
same,TGI,SK-OV-3 ovarian,5.34 µM
same,GI50,SN12C renal,0.709 µM
same,TGI,SN12C renal,> 75.8 µM
same,GI50,SNB-19 CNS,0.57 µM
same,TGI,SNB-19 CNS,> 100 µM
same,GI50,SNB-75 CNS,0.0818 µM
same,TGI,SNB-75 CNS,0.572 µM
same,GI50,SR leukemia,0.0369 µM
same,TGI,SR leukemia,> 100 µM
same,GI50,SW-620 colon,0.168 µM
same,TGI,SW-620 colon,> 56.9 µM
same,GI50,T-47D breast,0.471 µM
same,TGI,T-47D breast,> 28.9 µM
same,GI50,TK-10 renal,1.22 µM
same,TGI,TK-10 renal,19.5 µM
same,GI50,U251 CNS,0.36 µM
same,TGI,U251 CNS,4.32 µM
same,GI50,UACC-257 melanoma,0.496 µM
same,TGI,UACC-257 melanoma,6.86 µM
same,GI50,UACC-62 melanoma,0.207 µM
same,TGI,UACC-62 melanoma,7.07 µM
same,GI50,UO-31 renal,0.322 µM
same,TGI,UO-31 renal,8.77 µM
